Values quoted from earlier work as cited in PubChem BioAssay AID1259409 (Chemical Carcinogenesis Research Information System (CCRIS), 2018).

System: rodent chemically induced tumor inhibition, incidence and multiplicity
Assay: CCRIS tumor inhibitor studies
Description: The CCRIS database contains chemical records with carcinogenicity, mutagenicity, tumor promotion, and tumor inhibition test results. It was developed by the National Cancer Institute (NCI). Data are derived from studies cited in primary journals, current awareness tools, NCI reports, and other sources. Test results have been reviewed by experts in carcinogenesis and mutagenesis.
CCRIS provides historical information from the years 1985 - 2011. It is no longer updated.
This is an archive assay for CCRIS tumor inhibitor studies.

## c1c[nH]cn1
Carcinogen: N-METHYL-N-NITROSOUREA, 684-93-5, Dose [Inhibitor]: 1000 MG/KG OF LOW (3%) FAT DIET BEGINNING 1 WK POST CARCINOGEN DOSE AND CONTINUING FOR DURATION OF STUDY (STUDY DURATION, Route [Inhibitor]: ORAL, Species: RAT, Strain/Sex: SPRAGUE-DAWLEY/FEMALE, Target Tissue: Type of Lesion: MAMMARY GLAND: TUMOR, Dose [Carcinogen]: 40 MG/KG ONCE, Promoter: NONE USED
  tumour outcome (control, treated, inhibition, significance): 78%, 92%, -18%, not calculated

## S=C=Nc1cc2ccccc2c2ccccc12
Carcinogen: BENZO[A]PYRENE, 50-32-8, Dose [Inhibitor]: 0, 5 UMOL IN ACETONE 4 HR PRIOR TO CARCINOGEN DOSE (STUDY DURATION: 20 WK), Route [Inhibitor]: DERMAL, Species: MOUSE, Strain/Sex: STRAIN-A/FEMALE, Target Tissue: Type of Lesion: SKIN: TUMOR, Dose [Carcinogen]: 0.1 UMOL IN ACETONE ONCE, Promoter: 12-O-TETRADECANOYLPHORBOL-13-ACETATE, 16561-29-8
  outcome: 85%, 95%, -12%, not significant at 15 wk; 95%, 95%, 0%, not significant at 20 wk

## CC1=CC(=O)c2c(O)cccc2C1=O
Carcinogen: AZOXYMETHANE [25843-45-2], Dose [Inhibitor]: 200 PPM IN DIET FOR 4 WK BEGINNING 1 WK PRIOR TO FIRST CARCINOGEN DOSE (STUDY DURATION: 35 WK), Route [Inhibitor]: ORAL, Species: RAT, Strain/Sex: F344/MALE, Target Tissue: Type of Lesion: COLON: ADENOMA, Dose [Carcinogen]: 15 MG/KG BW 1X/WK FOR 3 WK (STUDY DURATION: 35 WK), Promoter: NONE
  tumour outcome (control, treated, inhibition, significance): 6/28 (21%), 3/29 (10%), 52%, not significant
Carcinogen: AZOXYMETHANE [25843-45-2], Dose [Inhibitor]: 200 PPM IN DIET FOR 4 WK BEGINNING 1 WK PRIOR TO FIRST CARCINOGEN DOSE (STUDY DURATION: 35 WK), Route [Inhibitor]: ORAL, Species: RAT, Strain/Sex: F344/MALE, Target Tissue: Type of Lesion: COLON: CARCINOMA, Dose [Carcinogen]: 15 MG/KG BW 1X/WK FOR 3 WK (STUDY DURATION: 35 WK), Promoter: NONE
  tumour outcome (control, treated, inhibition, significance): 8/28 (29%), 8/29 (28%), 3%, not significant
Carcinogen: AZOXYMETHANE [25843-45-2], Dose [Inhibitor]: 200 PPM IN DIET FOR 4 WK BEGINNING 1 WK PRIOR TO FIRST CARCINOGEN DOSE (STUDY DURATION: 35 WK), Route [Inhibitor]: ORAL, Species: RAT, Strain/Sex: F344/MALE, Target Tissue: Type of Lesion: SMALL INTESTINE: CARCINOMA, Dose [Carcinogen]: 15 MG/KG BW 1X/WK FOR 3 WK (STUDY DURATION: 35 WK), Promoter: NONE
  tumour outcome (control, treated, inhibition, significance): 7/28 (25%), 3/29 (10%), 60%, not significant

## CCCCCCCc1ccco1
Carcinogen: BENZO[A]PYRENE, 50-32-8, Dose [Inhibitor]: 0, 25 UMOL IN 0.2 ML COTTONSEED OIL 3/WK FOR 4 WK BEGINNING 1 DAY PRIOR TO FIRST CARCINOGEN DOSE AND TERMINATING 1 DAY A, Route [Inhibitor]: GAVAGE, Species: MOUSE, Strain/Sex: STRAIN-A/FEMALE, Target Tissue: Type of Lesion: FORESTOMACH: TUMOR, Dose [Carcinogen]: 1 MG 2/WK FOR 4 WK, Promoter: NONE USED
  tumour outcome (control, treated, inhibition, significance): 14/17 (82%), 10/15 (66%), 20%, not significant
Carcinogen: BENZO[A]PYRENE, 50-32-8, Dose [Inhibitor]: 0, 25 UMOL IN 0.2 ML COTTONSEED OIL 3/WK FOR 4 WK BEGINNING 1 DAY PRIOR TO FIRST CARCINOGEN DOSE AND TERMINATING 1 DAY A, Route [Inhibitor]: GAVAGE, Species: MOUSE, Strain/Sex: STRAIN-A/FEMALE, Target Tissue: Type of Lesion: LUNG: TUMOR, Dose [Carcinogen]: 1 MG 2/WK FOR 4 WK, Promoter: NONE USED
  tumour outcome (control, treated, inhibition, significance): 17/17 (100%), 15/15 (100%), 0%, not significant
Carcinogen: BENZO[A]PYRENE, 50-32-8, Dose [Inhibitor]: 0, 50 UMOL IN 0.2 ML COTTONSEED OIL 3/WK FOR 4 WK BEGINNING 1 DAY PRIOR TO FIRST CARCINOGEN DOSE AND TERMINATING 1 DAY A, Route [Inhibitor]: GAVAGE, Species: MOUSE, Strain/Sex: STRAIN-A/FEMALE, Target Tissue: Type of Lesion: FORESTOMACH: TUMOR, Dose [Carcinogen]: 1 MG 2/WK FOR 4 WK, Promoter: NONE USED
  tumour outcome (control, treated, inhibition, significance): 14/17 (82%), 9/12 (75%), 8%, not significant
Carcinogen: BENZO[A]PYRENE, 50-32-8, Dose [Inhibitor]: 0, 50 UMOL IN 0.2 ML COTTONSEED OIL 3/WK FOR 4 WK BEGINNING 1 DAY PRIOR TO FIRST CARCINOGEN DOSE AND TERMINATING 1 DAY A, Route [Inhibitor]: GAVAGE, Species: MOUSE, Strain/Sex: STRAIN-A/FEMALE, Target Tissue: Type of Lesion: LUNG: TUMOR, Dose [Carcinogen]: 1 MG 2/WK FOR 4 WK, Promoter: NONE USED
  tumour outcome (control, treated, inhibition, significance): 17/17 (100%), 12/12 (100%), 0%, not significant

## C=C1/C(=C\C=C2/CCC[C@]3(C)[C@@H]([C@H](C)CCCC(C)C)CC[C@@H]23)C[C@@H](O)C[C@@H]1O
Carcinogen: N-METHYL-N'-NITRO-N-NITROSOGUANIDINE [70-25-7], Dose [Inhibitor]: 0.04 UG IN MEDIUM CHAIN TRIGLYCERIDE 3X/WK FOR 24 WK BEGINNING IMMEDIATELY POST LAST CARCINOGEN DOSE (STUDY DURATION: 48, Route [Inhibitor]: INTRAGASTRIC, Species: RAT, Strain/Sex: WISTAR WKY/STD/MALE, Target Tissue: Type of Lesion: STOMACH AND SMALL INTESTINE: TUMOR, Dose [Carcinogen]: 0.01% IN DRINKING WATER FOR 24 WK (STUDY DURATION: 48 WK), Promoter: NONE
  tumour outcome (control, treated, inhibition, significance): 16/30 (53%), 8/30 (27%), 49%, p<0.05
Carcinogen: N-METHYL-N'-NITRO-N-NITROSOGUANIDINE, 70-25-7, Dose [Inhibitor]: 0, 0.04 UG 3/WK FOR 24 WK BEGINNING POST CARCINOGEN TREATMENT (STUDY DURATION: 48 WK), Route [Inhibitor]: GAVAGE, Species: RAT, Strain/Sex: WISTAR/MALE, Target Tissue: Type of Lesion: GASTROINTESTINAL TRACT: TUMOR, Dose [Carcinogen]: 0.01% IN DRINKING WATER FOR 24 WK, Promoter: NONE USED
  tumour outcome (control, treated, inhibition, significance): 16/30 (53%), 8/30 (27%), 49%, p<0.05
Carcinogen: N-METHYL-N-NITROSOUREA, 684-93-5, Dose [Inhibitor]: 0, 0.04 UG IN 0.2 ML OF MEDIUM CHAIN TRIGLYCERIDE 3/WK FOR 40 WK (STUDY DURATION: 46 WK), Route [Inhibitor]: INTRAGASTRIC, Species: RAT, Strain/Sex: F344/FEMALE, Target Tissue: Type of Lesion: COLON: TUMOR, Dose [Carcinogen]: 1 MG IN 0.5 ML DISTILLED WATER 1/WK FOR 40 WK, Promoter: NONE USED
  tumour outcome (control, treated, inhibition, significance): 21/24 (88%), 12/25 (48%), 45%, p<0.01
Carcinogen: N-METHYL-N-NITROSOUREA, 684-93-5, Dose [Inhibitor]: 0.04 UG IN 0.2 ML OF MEDIUM CHAIN TRIGLYCERIDE FOLLOWING EACH PROMOTER DOSE 3/WK FOR 48 WK (STUDY DURATION: 50 WK), Route [Inhibitor]: GAVAGE, Species: RAT, Strain/Sex: F344/FEMALE, Target Tissue: Type of Lesion: COLON: ADENOMA OR ADENOCARCINOMA OR LEIOMYOSARCOMA, Dose [Carcinogen]: 2.5 MG IN 0.5 ML DISTILLED WATER TWICE IN 1 WK, Promoter: LITHOCHOLIC ACID, 434-13-9
  tumour outcome (control, treated, inhibition, significance): 15/32 (47%), 6/30 (20%), 57%, p<0.05
